Drawing on PubChem BioAssay (NCI), this text covers TGI for 26 compounds.

Structures are written as SMILES.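 Values below derive from 48-hour exposures of cells grown in 96-well plates, with endpoints linearly interpolated between the two concentrations bracketing the appropriate inhibition level. TGI denotes the concentration required for complete inhibition of growth.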

What all share (assay): NCI anticancer screen, dose series, 48 h
In test [1] the test system is SF-268 CNS.
Test [2] concerns SNB-75 CNS.
Test [3] has as its system 786-0 renal.
The subject of test [4] is UO-31 renal.
Test [5] relates to U251 CNS.
The test system of test [6] is A549 NSCLC.
The subject of test [7] is SW-620 colon.
Test [8] relates to NCI/ADR-RES ovarian.
In test [9] the test system is OVCAR-3 ovarian.
In test [10] the test system is PC-3 prostate.

For `Cc1ccc(/C=C/C(=O)Oc2ccc(/C=C3\CCC/C(=C\c4ccc(OC(=O)/C=C/c5ccc(C)cc5)cc4)C3=O)cc2)cc1`, the TGI is over 100 µM in [1]; 36.3 µM in test [2]; 81 µM in test [3]; over 100 µM in test [4]; over 100 µM in test [5]; over 100 µM in test [6]. Moreover, the TGI in test [7], in test [8], in test [9] and in test [10] was over 100 µM in each case.

On to `O=C(CCBr)N1CCN(C(=O)CCBr)CC1`, for which the TGI in test [1] was determined as 153 µM; in test [2] it was 180 µM; in test [3] it was 191 µM; in [4] it was 293 µM; in test [5], 114 µM; in [6], 140 µM. The TGI stood at 218 µM in test [7], 221 µM in [8], 218 µM in test [9] and 500 µM in [10].

`O[C@@H]1C[C@H](Cl)c2c(Cl)sc(Cl)c21`: the TGI in test [1], in [2], in test [3], in test [4], in test [5] and in test [6] was over 100 µM in each case. In addition, the TGI in test [7], in [8], in test [9] and in [10] was over 100 µM each time.

As to `COc1ccc2nc3c([N+](=O)[O-])ccc(NCCN(C)C)c3c(N)c2c1`, the TGI in test [1] was 3.12 µM; in [2], 2.62 µM; in test [3], 3.31 µM; in [4], 2.87 µM; in test [5], 3.13 µM; in test [6], 3.29 µM. For the same compound, the TGI in [7] was found to be 0.562 µM; in test [8], 3.03 µM; in [9], 3.31 µM; in [10], 2.81 µM.

In the case of `CSc1ncc2c(n1)-c1ccccc1OC2N1CCOCC1` (stereo not given), the TGI in [1], in test [2], in test [3], in [4], in test [5] and in [6] was over 100 µM in each case. Moreover, the TGI in test [7], in test [8], in test [9] and in test [10] was over 100 µM in each case.

As for `CCOC(=O)c1[nH]cc(C)c1-c1cccn1-c1ccc(Cl)cc1[N+](=O)[O-]`, the TGI in test [1] was 61.5 µM; in test [2], 56.1 µM; in test [3], 36.1 µM; in test [4], 54.9 µM; in test [5], 33.1 µM; in [6], 92.9 µM. The TGI was over 100 µM in [7], 52.9 µM in test [8], 29.5 µM in test [9] and 64.9 µM in [10].

Consider `Cc1nn(C(=O)c2ccccc2O)c2c1C(c1ccc(O)cc1O)SC(N)=N2` (stereo not given), for which the TGI was over 10 µM in test [1]; over 10 µM in [2]; over 10 µM in test [3]; 8.02 µM in test [4]; over 10 µM in [5]; over 10 µM in test [6]. Moreover, the TGI in test [7] is over 10 µM; in [8], 9.33 µM; in test [9] it was over 10 µM; in test [10], over 10 µM.

As for `CC(=O)OCC1OC(n2cnc3nc(Br)[nH]c(=O)c32)C(OC(C)=O)C1OC(C)=O` (stereo not given), the TGI in test [1], in test [2], in test [3], in test [4], in [5] and in test [6] was over 100 µM throughout. For the same compound, the TGI in [7], in test [8], in test [9] and in [10] was over 100 µM throughout.

As to `C/C=C1/CN2CCC34c5ccccc5N(C)C23C2CC1C4(C(=O)OC)C(OC(C)=O)O2` (stereo not given), the TGI in test [1], in test [2], in [3], in [4], in test [5] and in [6] was over 100 µM throughout. Besides, the TGI in test [7], in test [8], in test [9] and in test [10] was over 100 µM each time.

`COC(=O)c1c(O)ccc2c1c1cc3ccccc3cc1n2Cc1cc(OC)cc(OC)c1`: the TGI in test [1] is over 26.9 µM; in [2], 8.94 µM; in [3] it was over 100 µM; in [4] it was over 100 µM; in test [5] it was over 100 µM; in test [6], over 100 µM. The TGI is over 100 µM in test [7], over 29.2 µM in test [8], 2.45 µM in [9] and over 32.6 µM in test [10].

As to `CCOP(=O)(CCCC(O)CNc1nc(N)nc(Cl)c1N=Nc1ccc(Cl)cc1)OCC` (stereo not given), the TGI in test [1] is 18.1 µM; in test [2] it was 11.1 µM; in [3], 17.9 µM; in test [4], 16.1 µM; in test [5] it was 22.7 µM; in test [6] it was 23.9 µM. For the same compound, the TGI is 36.5 µM in test [7], 31 µM in test [8], 18.4 µM in test [9] and 16.7 µM in [10].

For `CCOC(=O)/C=C(/C(=O)OCC)n1cc(C)c(=O)n(Cc2cnnn2COCCOC(C)=O)c1=O`, the TGI in [1] was 42.5 µM; in [2], over 67.2 µM; in [3], 22.5 µM; in [4] it was 30.4 µM; in [5] it was 57.1 µM; in test [6], over 84.2 µM. Besides, the TGI in test [7] was over 55.6 µM; in test [8], 61.3 µM; in test [9], 32.3 µM; in test [10], 37.7 µM.

With `COc1ccc(-n2c(SC(CN3CCOCC3)CN3CCCC3=O)nc3ccccc3c2=O)cc1` (stereo not given), the TGI in [1], in [2], in test [3], in test [4], in [5] and in test [6] was over 100 µM in each case. The TGI in test [7], in [8], in test [9] and in [10] was over 100 µM each time.

With `COC(=O)CNC(=O)C(Cc1ccccc1)NC(=O)c1ccc(-c2ccc(Cl)cc2Cl)o1` (stereo not given), the TGI in [1] was 69.8 µM; in [2], over 100 µM; in test [3], 38.7 µM; in test [4] it was over 100 µM; in test [5], over 100 µM; in [6] it was over 100 µM. Besides, the TGI is over 100 µM in test [7], over 100 µM in [8], 72.5 µM in test [9] and over 100 µM in [10].

Regarding `Cc1c(Cc2ccccc2)n(C(C)OCCN(OC(=O)Oc2ccccc2)C(=O)Oc2ccccc2)c(=O)[nH]c1=O` (stereo not given), the TGI in [1] came out at 40.3 µM; in test [2], 20.6 µM; in test [3] it was 34.3 µM; in test [4] it was 29.3 µM; in test [5] it was 38.3 µM; in test [6], 73.9 µM. Besides, the TGI was determined as 41.7 µM in [7], 39.1 µM in [8], 37.7 µM in test [9] and 58.9 µM in [10].

For the compound `CNC(=O)N(CCC#N)CCN(C(=O)NC)c1ccccc1`, the TGI in [1], in test [2], in [3], in [4], in test [5] and in test [6] was over 100 µM throughout. The TGI in test [7], in test [8], in test [9] and in [10] was over 100 µM each time.

Consider `Cc1ncc([N+](=O)[O-])n1CC[N+](C)([O-])CCCCn1ccnc1[N+](=O)[O-]` (stereo not given), for which the TGI in test [1], in test [2], in [3], in test [4], in test [5] and in test [6] was over 100 µM throughout. The TGI in test [7], in [8], in test [9] and in test [10] was over 100 µM throughout.

`N[C@H]1c2c(Br)sc(Br)c2C(=O)[C@H]1O`: the TGI in test [1] was over 68.1 µM; in test [2], 79.7 µM; in test [3], 34.5 µM; in [4] it was 47.2 µM; in test [5], 29.7 µM; in test [6], 70.1 µM. The TGI is 25.8 µM in [7], over 58.9 µM in test [8], over 61.9 µM in test [9] and over 75.1 µM in [10].

With `CN(C)CN1CSC(=S)N(CN(C)C)C1`, the TGI in test [1], in test [2], in [3], in test [4], in [5] and in [6] was over 100 µM throughout. The TGI in test [7] was over 100 µM; in test [8], over 100 µM; in [9], over 100 µM; in test [10], 42.7 µM.

As for `O=c1c2c3c(sc2nc2n1N=CN(c1ccccc1)C2)CCCC3`, the TGI in test [1], in test [2], in test [3], in test [4], in test [5] and in test [6] was over 100 µM each time. Moreover, the TGI in test [7], in test [8], in test [9] and in [10] was over 100 µM in each case.

On to `CC(C)(C)NC1=NC(C(F)(F)F)(C(F)(F)F)NC(=O)N1`, for which the TGI in [1], in test [2], in [3], in [4], in test [5] and in [6] was over 100 µM each time. Moreover, the TGI in [7], in test [8], in [9] and in [10] was over 100 µM in each case.

In the case of `O=C1/C(=C/c2ccc(O)cc2)CCCC1CN1CCCCC1` (stereo not given), the TGI was determined as 11.9 µM in test [1]; 22.5 µM in test [2]; 2.38 µM in test [3]; 5.88 µM in test [4]; 22.3 µM in test [5]; 31.9 µM in test [6]. Besides, the TGI in test [7] was found to be 3.8 µM; in test [8], 29.6 µM; in test [9], 14.9 µM; in test [10], 10 µM.

Turning to `COc1cc(C2c3cc4c(cc3OC(NNc3ccccc3)C2C)OCO4)cc(OC)c1OC` (stereo not given), the TGI in test [1] was 38.1 µM; in test [2] it was over 62.7 µM; in [3] it was 12.8 µM; in test [4], 6.79 µM; in [5], 13.2 µM; in test [6], over 42.3 µM. The TGI in test [7] was over 100 µM; in test [8], 58.6 µM; in test [9], 19.2 µM; in test [10] it was over 56.3 µM.

Consider `COC(=O)Nc1nc2ccc(S(=O)(=O)Nc3ccccn3)cc2[nH]1`, for which the TGI in [1] is over 100 µM; in test [2] it was 71.1 µM; in test [3] it was over 100 µM; in test [4], over 100 µM; in [5], over 100 µM; in [6], over 100 µM. Also, the TGI in test [7] was 66.6 µM; in test [8], over 100 µM; in test [9], over 100 µM; in test [10], over 100 µM.

In the case of `O=C(CN1CCCC1=O)CS(=O)(=O)c1ccccc1`, the TGI in test [1], in [2], in [3], in test [4], in [5] and in test [6] was over 100 µM throughout. Further, the TGI in [7], in test [8], in [9] and in test [10] was over 100 µM throughout.

As to `Cc1ccc(S(=O)(=O)N2CCC[C@@H]2C(=O)O[C@@H]2CCC3CC=CC32)cc1` (stereo not given in full), the TGI in test [1] was 75 µM; in test [2], over 100 µM; in test [3] it was 55.4 µM; in test [4], 41.5 µM; in [5], over 100 µM; in test [6], over 100 µM. The TGI in test [7] is over 100 µM; in test [8] it was 63.2 µM; in test [9] it was 38.8 µM; in test [10], 69.6 µM.
